# In the supplement of paper PMC10307832:
# Compound: O=c1ncccn1[C@@H]1O[C@H](CO)[C@@H](O)[C@H]1O [Zebularine] + NC(=O)Nc1cc(-c2cccc(F)c2)sc1C(=O)N[C@H]1CCCNC1 [AZD7762] (partner 0.2 µM)
# Test: relative viability (nuclei count vs DMSO), 5 days (fraction); higher = more cells survive
# Details: first compound 1 µM
# In short: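 The day after seeding in 1536-well plates, lung cancer cell lines were treated by pin tool with a single drug, or with a fixed anchor-drug dose together with five library-drug doses (not always all listed) in √10 steps. After 5 days, a combined fix-and-stain solution (final 0.05% Triton X-100, 1% formaldehyde, 1 ug/ml Hoechst) was added. Nuclei counted on 4× images gave relative viability as treated counts over vehicle counts, reported as the median of duplicate plates.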
row,Cell Line,relative viability
1,HOP-62,0.649
2,HCC-44,1.11
3,LU99A,0.348
4,BEN,0.808
5,HARA,0.417
6,HCC-78,0.716
7,NCI-H322M,0.555
8,LCLC-97TM1,0.127
9,A-427,0.753
10,NCI-H441,1.37
11,NCI-H1734,0.638
12,NCI-H460,0.781
13,NCI-H2347,0.858
14,NCI-H1395,0.402
15,201T,0.674
16,NCI-H1915,0.788
17,HCC-827,0.221

row,Cell Line,relative viability
1,LXF-289,1.07
2,NCI-H23,0.3
3,NCI-H647,0.814
4,NCI-H1651,0.506
5,EPLC-272H,0.171
6,NCI-H1792,0.758
7,NCI-H1355,0.722
8,NCI-H3122,1.05
9,NCI-H1437,1.16
10,NCI-H1755,0.411
11,HCC-15,1.24
12,NCI-H1793,0.499
13,PC-14,0.471
14,EKVX,0.846
15,LC-2-ad,0.907
16,NCI-H1944,0.598

# Same assay, conditions: first compound 3.162 µM
row,Cell Line,relative viability
1,HOP-62,0.658
2,HCC-44,1.03
3,LU99A,0.28
4,BEN,0.587
5,HARA,0.31
6,HCC-78,0.743
7,NCI-H322M,0.606
8,LCLC-97TM1,0.216
9,A-427,0.628
10,NCI-H441,1.27
11,NCI-H1734,0.575
12,NCI-H460,0.716
13,NCI-H2347,0.788
14,NCI-H1395,0.372
15,201T,0.594
16,NCI-H1915,0.7

row,Cell Line,relative viability
1,HCC-827,0.206
2,LXF-289,1.16
3,NCI-H23,0.375
4,NCI-H647,0.445
5,NCI-H1651,0.486
6,NCI-H1792,0.525
7,NCI-H1355,0.8
8,NCI-H3122,1.12
9,NCI-H1437,1.21
10,NCI-H1755,0.505
11,HCC-15,1.41
12,NCI-H1793,0.676
13,PC-14,0.324
14,EKVX,0.816
15,LC-2-ad,0.888
16,NCI-H1944,0.537

# Same assay, conditions: first compound 10 µM
row,Cell Line,relative viability
1,HOP-62,0.303
2,HCC-44,1.15
3,LU99A,0.267
4,BEN,0.504
5,HARA,0.303
6,NCI-H322M,0.572
7,LCLC-97TM1,0.142
8,A-427,0.487
9,NCI-H441,0.536
10,NCI-H1734,0.366
11,NCI-H460,0.294
12,NCI-H2347,0.609
13,NCI-H1395,0.397
14,201T,0.426
15,NCI-H1915,0.616
16,HCC-827,0.197
17,LXF-289,1.11
18,NCI-H647,0.256
19,NCI-H1651,0.445
20,EPLC-272H,0.183
21,NCI-H1792,0.332
22,NCI-H1355,0.543
23,NCI-H3122,0.846
24,NCI-H1437,0.947
25,NCI-H1755,0.384
26,HCC-15,0.883
27,NCI-H1793,0.326
28,PC-14,0.141
29,LC-2-ad,0.525
30,NCI-H1944,0.451

# Same assay, conditions: first compound 31.62 µM
row,Cell Line,relative viability
1,HOP-62,0.307
2,HCC-44,1.14
3,LU99A,0.24
4,BEN,0.496
5,HARA,0.371
6,HCC-78,0.648
7,NCI-H322M,0.522
8,LCLC-97TM1,0.134
9,A-427,0.501
10,NCI-H441,0.418
11,NCI-H1734,0.495
12,NCI-H460,0.434
13,NCI-H2347,0.462
14,NCI-H1395,0.37
15,201T,0.691
16,NCI-H1915,0.728
17,HCC-827,0.197

row,Cell Line,relative viability
1,LXF-289,0.699
2,NCI-H23,0.23
3,NCI-H647,0.259
4,NCI-H1651,0.466
5,EPLC-272H,0.192
6,NCI-H1792,0.324
7,NCI-H1355,0.588
8,NCI-H3122,1.04
9,NCI-H1437,1.16
10,NCI-H1755,0.611
11,HCC-15,1.17
12,NCI-H1793,0.407
13,PC-14,0.144
14,EKVX,0.593
15,LC-2-ad,0.812
16,NCI-H1944,0.525

# Same assay, conditions: first compound 100 µM
row,Cell Line,relative viability
1,HOP-62,0.247
2,HCC-44,1.01
3,LU99A,0.115
4,BEN,0.296
5,HARA,0.336
6,HCC-78,0.468
7,NCI-H322M,0.528
8,LCLC-97TM1,0.13
9,A-427,0.287
10,NCI-H441,0.369
11,NCI-H1734,0.306
12,NCI-H460,0.126
13,NCI-H2347,0.305
14,NCI-H1395,0.435
15,201T,0.607
16,NCI-H1915,0.671
17,HCC-827,0.179

row,Cell Line,relative viability
1,LXF-289,0.281
2,NCI-H23,0.254
3,NCI-H647,0.211
4,NCI-H1651,0.294
5,EPLC-272H,0.24
6,NCI-H1792,0.215
7,NCI-H1355,0.338
8,NCI-H3122,1.02
9,NCI-H1437,0.914
10,NCI-H1755,0.36
11,HCC-15,0.984
12,NCI-H1793,0.359
13,PC-14,0.14
14,EKVX,0.772
15,LC-2-ad,0.357
16,NCI-H1944,0.258
